Measured values taken from patent US7598067B2, “PDEs and uses thereof” (priority 2000, dated 2009).
Values joined by “and” are separate entries in the source; they are usually repeats but may differ in a detail not shown here. Equal values may be shown once. Read-outs that look alike come from different tables or passages of the source.

Assays:
TbPDE2A [1] = molecular target: T1, TbPDE2A (Trypanosoma brucei, UniProt Q9GTN9); assay: Phosphodiesterase assay, recombinant TbPDE2A in yeast lysates; type: biochemical; settings: for effect on TbPDE2A activity in initial screening: 100 μM inhibitor, FIG. 26; for effect on TbPDE2A activity in initial screening / IC50 / IC50 for TbPDE2A (μM): 1 μM cAMP; for IC50 / IC50 for TbPDE2A (μM): full-size TbPDE2A, yeast lysates
Experimental: Yeast cell lysis. Yeast cells grown to mid- to end-log phase in SC-leu medium were collected, resuspended quickly in an original volume of prewarmed YPD medium and incubated for an additional 3 h at 30° C. in order to maximize protein expression. Cells were then harvested, washed once in water and once in HBBB buffer (Hank's balanced salt solution, containing 50 mM HEPES, pH 7.5). The washed cell pellet was suspended in an equal volume of HBB containing a protease inhibitor cocktail (Complete™, Roche Molecular Biochemicals). […] The cell lysate was clarified by centrifugation for 15 min at 15,000×g.
Phosphodiesterase Assay. […] […] Incubation was at 30° C. for 20 min. […] The precipitates were filtered through GF-C glass fiber fitters and filters were washed 3 times with ice-cold 1 mM NaOH/100 mM NaCl and were then dried and counted in liquid scintillation fluid (4 g/I omnifluor in toluene). All assays were carried out in triplicates and with three independent enzyme preparations. Controls for the efficiency of precipitation of cAMP and of AMP were always included. When assaying yeast cell extracts, control lysates from the PDE deletion strains transfected with empty vector was used as a background control. […] Inhibitors were dissolved in DMSO or ethanol, and the final concentration of the solvent never exceeded 1% in the assays reaction. Incubation times and enzyme concentrations were always adjusted so that less than 30% of the input substrate was hydrolyzed (2-5 μg total protein/100 μl assay). IC50 values were calculated by curve fitting on a four parameter dose-response model with variable slope, using the Prism software package of Graph Pad Inc., San Diego, Calif.

TbPDE2B = TbPDE2B (Trypanosoma brucei, UniProt Q9GQU6); assay: Phosphodiesterase assay, recombinant TbPDE2B expressed in HEK 293 cells; type: biochemical; settings: for inhibition of recombinant TbPDE2B, in words: 1 μM [3H] cAMP, cGMP up to 200 μM
Experimental: Expression of T. brucei PDE. The ORF sequence for T. brucei PDE was subcloned into the pcDNA 3.1-TOPO vector (Invitrogen) according to the manual (Eukaryotic TOPO TA Cloning, version C) and plasmid DNA purified as described above. Human embryonic kidney 293 (HEK 293) cells were transfected with 12 μg of DNA in 60 μl of GenePORTER Transfection Reagent (Gene Therapy Systems, San Diego, Calif.) in 100-mm dishes and kept at 37° C. in 5% CO2 for 24 h. After this period fresh medium was added, and incubated under the same conditions for an additional 24 h. The same amount of pcDNA vector containing the sequence for the Green Fluorescent Protein (GFP) was transfected under identical conditions as a positive control for expression and as a negative control for PDE activity. Two plates were harvested at a time and homogenized with 1 ml of homogenization buffer containing 40 mM Tris-HCl, pH 7.5; 15 mM benzamidine; 15 mM 2-mercaptoethanol; 1 μg/ml pepstatin A; 1 μg/ml leupeptin and 5 mM EDTA. The cell suspension was immediately subjected to sonication (3×5 s) on ice. One volume of glycerol and 1 mg/ml of bovine serum albumin were added immediately to the homogenate.
Phosphodiesterase assay. […]

[2] = system: total PDE activity of trypanosomal cell extracts; assay: Total PDE activity in trypanosomal cell extracts; type: biochemical, Trypanosoma brucei
Text: Chemical validation of the TbPDE2 family as a potential drug target. One of the novel PDEs of the invention, TbPDE2A, was expressed as a recombinant protein and was characterized in detail (see above). […].

PDE7A = assay: RT-PCR of PDE7A upregulation in CD3/CD28-stimulated CD4+ T cells; type: cell-based, human; settings: 1 hour after stimulation; FIG. 2C
PDE8A = assay: RT-PCR of PDE8A upregulation in CD3/CD28-stimulated CD4+ T cells; type: cell-based, human; settings: after CD3 and CD28 stimulation; FIG. 2C, 2D
Experimental: Peripheral blood mononuclear cells were isolated from one human buffy coat (50 mL) by centrifugation through a layer of Ficoll-Paque Plus (2000 rpm, 30 min). Cells from the interface were removed and further purified by negative selection. CD4^+ T cells were usually isolated using a mixture of monoclonal antibodies (CD8, CD16, CD20, CD25 and HLADr) and goat anti-mouse IgG conjugated to magnetic beads according to the manufacturers protocol (Dynal, Lake Success, N.Y.). In some cases the CD4^+ T cell isolation kit was used in combination with the CD69 microbead kit (to remove activated cells). The labeled cells were removed by passage through a CS column (Miltenyi Biotec, Auburn, Calif.) placed in a magnetic field. The CD4^+ T cells passing through the column (at least 98% pure as determined by FACS analysis) were resuspended in RPMI/10% FBS/pen/strep/glutamine medium. The cells were stimulated as follows. Plates (Corning, Acton, Mass.) were precoated with goat anti-mouse IgG (10 μg/mL) for 2 hours at 37° C. and then washed with PBS. Cells were added to the plate together with CD3 (0.01 μg/mL) and CD28 (0.1 ug/mL) monoclonal antibodies and were harvested at various time points. The presence of PDE8A protein and RNA in activated CD4^+ T cells was detected by Western blotting and RT-PCR (see example 3). […]

PDEs (Non-selective) = settings: read-out: PDE Selectivity (IC50); cited from earlier work
[3] = system: PDE8A and PDE7A from hut78 cells; assay: PDE activity of monoQ HPLC fractions of hut78 cells, low Km peak; type: biochemical, human; settings: 0.01 μM cAMP; 10 μM rolipram or 100 μM IBMX
Experimental: Since pure CD4^+ T cells can only be obtained in limited quantities, a human CD4^+ T cell line, hut78, (ATCC, Manassas, Va.), was used to study the activity of PDE8A. Hut78 cells (2×10^8) were resuspended in 20 mM Tris pH 7.5 buffer containing protease inhibitors (Boehringer Mannheim, Indianapolis, Ind.) and sonicated. The supernatant was removed after centrifugation at 15000×g for 10 minutes and applied to a Mono Q column attached to a Rainin Dynamax HPLC system (Ameryville, Calif.). A NaCl gradient (0-0.8M) was passed through the column and 250 uL fractions were collected. The fractions were assayed for activity using either 1 μM or 0.01 μM cAMP as substrate and the indicated concentration of inhibitor (FIG. 5). Western blot analysis was also performed (10 μL/well) using PDE7A or 8A antibodies.

[4] = system: endogenous PDE activity from the HEK 293 cells; assay: Endogenous PDE activity from HEK 293 cells; type: biochemical, human; settings: lowest concentration used (10 μM)
Text: Phosphodiesterase assay. […] […]

PDE 4 = settings: read-out: PDE Selectivity (IC50); cited from earlier work
TbPDE2A [5] = molecular target: T1, TbPDE2A; settings: Table 2, from reference; cited from earlier work
PDE 6 = settings: read-out: PDE Selectivity (IC50); cited from earlier work

T1 sequence (Q9GTN9 entry or part of it): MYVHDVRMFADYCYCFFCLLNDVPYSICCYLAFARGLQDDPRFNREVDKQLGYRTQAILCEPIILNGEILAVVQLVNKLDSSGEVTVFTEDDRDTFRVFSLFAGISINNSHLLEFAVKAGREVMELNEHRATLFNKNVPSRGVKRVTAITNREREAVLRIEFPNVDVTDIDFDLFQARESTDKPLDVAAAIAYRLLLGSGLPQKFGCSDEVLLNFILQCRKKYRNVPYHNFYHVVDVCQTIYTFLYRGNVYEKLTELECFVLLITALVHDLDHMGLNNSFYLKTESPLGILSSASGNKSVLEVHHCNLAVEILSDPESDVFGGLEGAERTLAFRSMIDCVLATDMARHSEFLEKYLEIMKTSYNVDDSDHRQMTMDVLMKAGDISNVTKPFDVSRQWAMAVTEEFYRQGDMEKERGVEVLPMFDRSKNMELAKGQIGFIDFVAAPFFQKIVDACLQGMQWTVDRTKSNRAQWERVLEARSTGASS
Chain of TbPDE2B (Q9GQU6 entry or part of it): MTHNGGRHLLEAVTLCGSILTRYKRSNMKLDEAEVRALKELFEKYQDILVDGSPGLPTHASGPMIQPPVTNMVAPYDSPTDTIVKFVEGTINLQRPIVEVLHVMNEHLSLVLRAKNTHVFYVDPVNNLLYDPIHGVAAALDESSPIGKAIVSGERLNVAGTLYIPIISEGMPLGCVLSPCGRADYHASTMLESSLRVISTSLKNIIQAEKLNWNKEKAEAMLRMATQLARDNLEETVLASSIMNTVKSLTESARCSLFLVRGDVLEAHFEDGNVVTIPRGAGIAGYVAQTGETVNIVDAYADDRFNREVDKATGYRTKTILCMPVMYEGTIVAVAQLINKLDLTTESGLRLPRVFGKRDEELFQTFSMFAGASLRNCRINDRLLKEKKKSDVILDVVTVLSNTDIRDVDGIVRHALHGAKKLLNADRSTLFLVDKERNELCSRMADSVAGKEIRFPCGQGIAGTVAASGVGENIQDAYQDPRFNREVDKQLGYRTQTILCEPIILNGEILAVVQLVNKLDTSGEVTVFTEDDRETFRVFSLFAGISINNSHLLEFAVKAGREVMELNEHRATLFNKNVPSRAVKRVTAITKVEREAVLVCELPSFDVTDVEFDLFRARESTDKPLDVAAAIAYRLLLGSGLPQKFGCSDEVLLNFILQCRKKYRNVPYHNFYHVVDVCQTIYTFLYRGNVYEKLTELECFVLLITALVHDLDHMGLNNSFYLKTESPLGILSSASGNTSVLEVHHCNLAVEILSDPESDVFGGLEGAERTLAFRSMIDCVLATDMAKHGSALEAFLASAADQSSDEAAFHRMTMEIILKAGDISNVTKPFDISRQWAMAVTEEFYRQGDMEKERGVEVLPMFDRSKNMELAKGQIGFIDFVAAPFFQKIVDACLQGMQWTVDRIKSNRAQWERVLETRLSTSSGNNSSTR

With `COCc1nc2c([nH]1)c(=O)n(C)c(=O)n2CC(C)C` [8-methoxymethyl-IBMX] as the compound, how does the “effect on TbPDE2A activity in initial screening” value (shortened to “effect on TbPDE2A activity”) (TbPDE2A [1]) read?
Its value is “only very little effect”.

Which “effect on TbPDE2A activity” value (TbPDE2A [1]) does the source give for `CN(C(=O)CCCOc1ccc2[nH]c(=O)ccc2c1)C1CCCCC1` [Cilostamide, cilostamide] here?
Its value is “only very little effect”.

What about the IC50 (TbPDE2A [1]) of the same compound?
The IC50 was over 100 µM.

With `CCCCCCC(C(C)O)n1cnc2c(N)ncnc21` (stereo not drawn) [EHNA, erythro-9-[3-(2-hydroxynonyl)]-adenine] as the compound, how does the IC50 (TbPDE2B) read?
The IC50 was over 180 µM.

And the “inhibition of recombinant TbPDE2B, in words” value (from here on “inhibition”) (TbPDE2B)?
Its value is “No IC50 could be obtained”.

With `CCOC(=O)c1cnc2c(cnn2CC)c1NN=C(C)C` [Etazolate, etazolate] as the compound, how does the IC50 (TbPDE2B) read?
Its IC50 is 127 µM.

And the IC50 (TbPDE2A [1])?
The IC50 was 30.3 µM.

Which results are given for `CCOc1ccc(Cc2nccc3cc(OCC)c(OCC)cc23)cc1OCC` [Ethaverine]?
total PDE activity [2]: marked, if not complete, reduction; effect on TbPDE2A activity in initial screening (TbPDE2A [1]): significantly more effective as an inhibitor of TbPDE2A than its parent compound papaverine; IC50 (TbPDE2A [1]): 14 µM and 14.2 µM; IC50 for TbPDE2A (μM) (TbPDE2A [1]): low micromolar range

For `CC(C)(C)n1nc(-c2ccc(Cl)cc2)c2c(N)ncnc21` [PP2], which PDE7A upregulation (PDE7A) is on record?
The PDE7A upregulation was “reduction of PDE7A upregulation”.

What about the PDE8A upregulation (PDE8A) of the same compound?
The PDE8A upregulation was “greatly reduced”.

With `COc1ccc(Cc2nccc3cc(OC)c(OC)cc23)cc1OC` [Papaverine, papaverine] as the compound, how does the IC50 (TbPDE2B) read?
Its IC50 is 304 ± 19 µM.

And the “inhibition” value (TbPDE2B)?
Its value is “extremely low sensitivity”.

And the “effectiveness on TbPDE2A, in words” value (TbPDE2A [1])?
Its value is “only marginal activity”.

And the IC50 (PDEs (Non-selective))?
The IC50 was 5 to 25 µM.

Which IC50 (TbPDE2B) does the source give for `CC(=O)CCCCn1c(=O)c2c(ncn2C)n(C)c1=O` [Pentoxifylline, pentoxifylline] here?
The IC50 was over 800 µM.

What about the “inhibition” value (TbPDE2B) of the same compound?
Its value is “extremely low sensitivity”.

And the IC50 (PDEs (Non-selective))?
The IC50 was 45 to 150 µM.

With `COc1ccc(C2CNC(=O)C2)cc1OC1CCCC1` (stereo not drawn) [Rolipram, rolipram] as the compound, how does the IC50 (TbPDE2B) read?
The IC50 was over 300 µM.

What about the “inhibition” value (TbPDE2B) of the same compound?
Its value is “No inhibition”.

And the “sensitivity of the PDE activity peak” value [3]?
The value was “resistant”.

And the “endogenous PDE activity from the HEK 293 cells” value [4]?
The value was “completely abolished”.

And the “effect on TbPDE2A activity” value (TbPDE2A [1])?
Its value is “no appreciable activity”.

What about the IC50 (TbPDE2A [1]) of the same compound?
Its IC50 is over 100 µM.

And the IC50 (TbPDE2A [5])?
Its IC50 is over 100 µM.

What does the source list for `CCCc1nn(C)c2c(=O)[nH]c(-c3cc(S(=O)(=O)N4CCN(C)CC4)ccc3OCC)nc12` [Sildenafil, sildenafil]?
IC50 (TbPDE2B): > 100 µM; inhibition of recombinant TbPDE2B, in words (TbPDE2B): No IC50 could be obtained; total PDE activity [2]: marked, if not complete, reduction; IC50 (TbPDE2A [1]): 9.4 µM; IC50 for TbPDE2A (μM) (TbPDE2A [1]): low micromolar range

Which results are given for `Cn1c(=O)c2[nH]cnc2n(C)c1=O` [Theophylline, theophylline]?
effectiveness on TbPDE2A, in words (TbPDE2A [1]): not effective; IC50 (TbPDE2A [1]): > 100 µM

What does the source list for `COc1cc2c(cc1OC)-c1c/c(=N\c3c(C)cc(C)cc3C)n(C)c(=O)n1CC2` [Trequinsin]?
total PDE activity [2]: marked, if not complete, reduction; IC50 (TbPDE2A [1]): 5.4 µM; IC50 for TbPDE2A (μM) (TbPDE2A [1]): low micromolar range

For `CCOC(=O)C1=C[C@]2(CC)CCCN3CCc4c(n1c1ccccc41)[C@@H]32` [Vinpocetine, vinpocetine], which “effect on TbPDE2A activity” value (TbPDE2A [1]) is on record?
Its value is “only very little effect”.

And the IC50 (TbPDE2A [1])?
The IC50 was over 100 µM.

Which results are given for `CCCOc1ccccc1-c1nc2nn[nH]c2c(=O)[nH]1` [Zaprinast, zaprinast]?
IC50 (TbPDE2B): > 50 µM; inhibition of recombinant TbPDE2B, in words (TbPDE2B): No IC50 could be obtained; effect on TbPDE2A activity in initial screening (TbPDE2A [1]): only very little effect; IC50 (TbPDE2A [1]): 42.4 µM; IC50 (PDE 6): 0.15 µM; IC50 (TbPDE2A [5]): 42.5 µM

Which “effect on TbPDE2A activity” value (TbPDE2A [1]) does the source give for `Cc1[nH]c(=O)c(C#N)cc1-c1ccncc1` [milrinone] here?
Its value is “only very little effect”.

Which “inhibition” value (TbPDE2B) does the source give for Ro 20-1724 here?
Its value is “No inhibition”.

What about the IC50 (TbPDE2B; Substrate concentration 1 μM [3H]-cAMP, read-out: TbPDE2B IC50 (μM) (n = 3)) of the same compound?
The IC50 was over 300 µM.

And the “endogenous PDE activity from the HEK 293 cells” value [4]?
Its value is “completely abolished”.

And the IC50 (PDE 4)?
Its IC50 is 2 µM.
